Assay results: article PMC12406203 (Journal of Medicinal Chemistry, 2025)
Values joined by “and” are separate entries in the source; they are usually repeats but may differ in a detail not shown here. Equal values may be shown once.

Key:
[1] = system: ABL1(T315I)-phosphorylated
hBChE in SH-SY5Y cells = biological target: T1, hBChE in SH-SY5Y cells (Homo sapiens, UniProt P06276); experiment: hBChE inhibition assay in SH-SY5Y cells; format: cell-based; settings: 10 and 1 μM; compared with control ethopropazine
T1 construct: endogenous in cells; host or cells: SH-SY5Y human neuroblastoma cells
T1 sequence (P06276 29-602): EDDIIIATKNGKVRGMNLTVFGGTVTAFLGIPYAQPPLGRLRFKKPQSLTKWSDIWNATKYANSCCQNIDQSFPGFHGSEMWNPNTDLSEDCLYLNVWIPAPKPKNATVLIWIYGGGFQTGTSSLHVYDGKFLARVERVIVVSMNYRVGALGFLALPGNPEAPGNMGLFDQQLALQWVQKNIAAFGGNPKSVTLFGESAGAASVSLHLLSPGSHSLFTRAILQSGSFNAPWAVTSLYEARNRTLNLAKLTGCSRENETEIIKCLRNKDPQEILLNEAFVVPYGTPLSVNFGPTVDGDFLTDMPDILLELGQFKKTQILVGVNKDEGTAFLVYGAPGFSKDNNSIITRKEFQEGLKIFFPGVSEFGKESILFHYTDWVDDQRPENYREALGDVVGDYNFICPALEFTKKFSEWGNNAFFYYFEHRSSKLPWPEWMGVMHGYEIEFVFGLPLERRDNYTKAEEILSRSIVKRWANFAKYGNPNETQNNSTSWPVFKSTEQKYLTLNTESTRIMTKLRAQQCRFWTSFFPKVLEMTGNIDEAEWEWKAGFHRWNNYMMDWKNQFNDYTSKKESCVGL
Method: hBChE activity in live whole SH-SY5Y cells was measured by the modified procedure of Onder and colleagues. Briefly, after centrifugation, the complete medium was removed and cells were suspended in PBS warmed to 37 °C. 50 μL of this suspension was added to a 96-well plate so that each well contained approximately 360,000 cells. 81 μL of 0.5 mM 5,5′-dithiobis (2-nitrobenzoic acid) in 0.1 M potassium phosphate buffer (pH 7.0) was added, followed by 2 μL of DMSO solutions of compounds 94, 95, or ethopropazine (positive control). The reaction was initiated by the addition of 67 μL of 1 mM acetylthiocholine. The total reagent volume in each well was 200 μL. The microplate was covered with a lid to minimize evaporation while absorbance at 412 nm was recorded over a period of 120 min with a 30 s interval on a Tecan Spark microplate reader (Tecan Austria GmbH, Salzburg, Austria) set to 24 °C. Autohydrolysis rates of butyrylthiocholine were measured in wells that contained all reagents + PBS with no cells. The residual activity of hBChE was then calculated by the protocol described above.

PBMCs = experiment: Cytokine release from PHA-stimulated PBMCs; format: cell-based, human; settings: for production of pro-inflammatory cytokines IL-8, IL-1β, IL-6, IL-10, and TNF-α: 1, 2.5, and 5 μM, 18 h
Method: Human PBMCs from healthy donors were isolated from heparinized blood by density gradient centrifugation with Ficoll-Paque. The isolated cells were washed twice with PBS, resuspended in RPMI 1640 medium (Sigma-Aldrich, St. Louis, MO, USA) supplemented with 10% heat-inactivated fetal bovine serum (Gibco), 2 mM L-glutamine (Sigma-Aldrich), 100 U/mL penicillin (Sigma-Aldrich), and 100 μg/mL streptomycin (Sigma-Aldrich), and used in the assays.
Peripheral blood mononuclear cells were seeded (500,000 cells/well) in 24-well plates in 500 μL of growth medium and treated with compounds 94, 95, and neflamapimod (1, 2.5, and 5 μM) in the presence or absence of PHA (1 μg/mL) or the corresponding vehicle (0.1% DMSO). Cell-free supernatants were collected after 18 h of incubation (37 °C, 5% CO2) and stored at −80 °C until tested. Cytokine production was determined with BD Cytometric Bead Array human inflammatory cytokines kit (BD Bioscience) on an Attune NxT flow cytometer (Thermo Fisher Scientific, Waltham, MA, USA). Standard curves were generated using recombinant cytokines contained in the kit. The data were analyzed using the FlowJo (Tree Star, Inc., Ashland, OR, USA) and Prism (GraphPad Prism 6.0, GraphPad Software) software.

[2] = system: scopolamine-induced cognitive deficits in mice; experiment: Novel object recognition task, scopolamine-induced amnesia; format: in vivo; settings: for efficacy in NOR task: 5 mg/kg i.p., scopolamine model; for preference for the novel object (NOR task): 10 mg/kg i.p., vs mice treated with scopolamine alone
Source text: In the scopolamine model, the PA and NOR tasks were used for dose selection for further testing.
The mice had unlimited access to food and water prior to the experiment. Specified conditions for the maintenance of mice were ensured throughout the experiment, including tree bedding (Transwior, Poland) and cage enrichment (tunnels, nesting material, wooden igloos, etc.). For behavioral tests, the mice were selected randomly; each group consisted of 7–10 mice. […] The procedures for maintenance and treatment of laboratory animals were approved by the first Local Ethics Committee in Krakow (Approval No. 645/2022, 760/2023, and 829/2024 and the treatment of animals was in full accordance with ethical standards laid down in respective Polish and EU regulations (Directive 2010/63/EU).
Scopolamine hydrobromide (Sigma-Aldrich, Poland) at the dose of 1 mg/kg was used to induce learning and memory deficits. For the in vivo tests, scopolamine was prepared in distilled water (Polfa Kutno, Poland) and was administered subcutaneously (s.c.) 30 min before behavioral tests during the acquisition (training) trial of PA and NOR tasks. […] They were administered intraperitoneally (i.p.) 60 min before the acquisition trial of the PA, NOR, and MWM tasks.
The experiment was conducted in opaque black boxes with dimensions of 50 × 50 × 50 cm. The 3 day procedure consists of habituation to the test arena (without any objects) for 10 min on the first day (T0), a training trial (T1), and a testing trial (T2) separated by a 24 h intertrial interval. During T1 (familiarization trial), two identical objects (A and B) were presented in the opposite corners of the arena, approximately 5 cm from its walls. During T2 (recognition trial), one of the objects (B) was replaced by a novel object (C), so that the animals were presented with A (familiar) and C (novel) objects. Both T1 and T2 trials lasted for 10 min, and after each trial, the animals returned to their home cages. White plastic round containers (height 5 cm, diameter 5 cm) attached to the ground with double-sided tape were used as the A, B objects, and green cuboids of similar height were used as object C. The objects were stable enough so that the animals could not displace them. The sequence of presentations and the location of the objects were randomly assigned to each mouse. The animals explored the objects by looking, licking, sniffing, or touching them while sniffing, but not when leaning against, standing, or sitting on the objects. Any mouse exploring the two objects for less than 5 s within the 10 min duration of T1 or T2 was eliminated from the study. An experimenter, blind to the drug treatment, measured the exploration time of the objects.

[3] = system: mice (motor coordination); experiment: Rotarod test; settings: 10 mg/kg i.p., mice
Method: For behavioral tests, the mice were selected randomly; each group consisted of 7–10 mice.
In the rotarod, locomotor activity, and MWM tests, only one dose effective in the scopolamine model of amnesia was evaluated.
Three days before the rotarod test, the mice were trained on the rotarod apparatus (Rotarod apparatus, May Commat RR0711, Turkey; rod diameter: 2 cm) that was rotated at a fixed speed of 18 rpm. In each training session, the mice were placed on the rotating rod for 3 min with an unlimited number of trials. The proper experiment was performed 24 h after the last training trial. […] Motor impairments in mice were defined as the inability to remain on the rotarod apparatus for 1 min. The results are expressed as the mean time spent on the rotarod.

With `CC(C)Cn1ncc2cc(Cc3ccc(F)cc3F)c(C(=O)NCCN(C)C)cc21` [Compound 94, 5-(2,4-Difluorobenzyl)-N-(2-(dimethylamino)ethyl)-1-isobutyl-1H-indazole-6-carboxamide] the IC50 (p38α MAPK) was 377 nM and 156 ng/mL, the RA @ 1000nM [1] was 93% and the RA @ 10000nM [1] was 90%. For the same molecule, the RA @ 1000nM (ABL1-phosphorylated) was 79%, the RA @ 10000nM (ABL1-phosphorylated) was 53% and the RA @ 1000nM (ADCK3) was 100%. For the same molecule, the RA @ 10000nM (ADCK3) was 100%, the RA @ 1000nM (AKT1) was 100% and the RA @ 10000nM (AKT1) was 75%. It also gave an RA @ 1000nM (BMPR2) of 86%, an RA @ 10000nM (BMPR2) of 95% and an RA @ 1000nM (BTK) of 100%. For the same molecule, the RA @ 10000nM (BTK) was 100%, the RA @ 1000nM (CDK11) was 100% and the RA @ 10000nM (CDK11) was 89%. For the same molecule, the RA @ 1000nM (CDK3) was 100%, the RA @ 10000nM (CDK3) was 1.3% and the RA @ 1000nM (CHEK1) was 100%. The RA @ 10000nM (CHEK1) was 100%, the RA @ 1000nM (EPHA2) was 97% and the RA @ 10000nM (EPHA2) was 100%. The RA @ 1000nM (ERBB4) was 85%, the RA @ 10000nM (ERBB4) was 83% and the RA @ 1000nM (ERK1) was 87%. The RA @ 10000nM (ERK1) was 87%, the RA @ 1000nM (ERK 2) was 100% and the RA @ 10000nM (ERK 2) was 98%. For the same molecule, the RA @ 1000nM (FGFR3) was 100%, the RA @ 10000nM (FGFR3) was 100% and the RA @ 1000nM (FLT3) was 100%. For the same molecule, the RA @ 10000nM (FLT3) was 90%, the RA @ 1000nM (GSK3B) was 91% and the RA @ 10000nM (GSK3B) was 97%. It also gave an RA @ 1000nM (IGF1R) of 94%, an RA @ 10000nM (IGF1R) of 84% and an RA @ 1000nM (KIT(V559D,T670I)) of 100%. The RA @ 10000nM (KIT(V559D,T670I)) was 100%, the RA @ 1000nM (MAP3K4) was 49% and the RA @ 10000nM (MAP3K4) was 100%. It also gave an RA @ 1000nM (MAPKAPK2) of 100%, an RA @ 10000nM (MAPKAPK2) of 84% and an RA @ 1000nM (MAPKAPK5) of 100%. The RA @ 10000nM (MAPKAPK5) was 100%, the RA @ 1000nM (MKNK1) was 100% and the RA @ 10000nM (MKNK1) was 100%. For the same molecule, the RA @ 1000nM (MLK1) was 100%, the RA @ 10000nM (MLK1) was 100% and the RA @ 1000nM (PIK3C2B) was 90%. The RA @ 10000nM (PIK3C2B) was 82%, the RA @ 1000nM (PIM2) was 100% and the RA @ 10000nM (PIM2) was 100%. It also gave an RA @ 1000nM (ROCK2) of 87%, an RA @ 10000nM (ROCK2) of 96% and an RA @ 1000nM (TIE2) of 100%. The RA @ 10000nM (TIE2) was 100%, the RA @ 1000nM (TSSK1B) was 77% and the RA @ 10000nM (TSSK1B) was 89%. It also gave an RA @ 1000nM (ULK2) of 71%, an RA @ 10000nM (ULK2) of 88% and an RA @ 1000nM (VEGFR2) of 100%. It also gave an RA @ 10000nM (VEGFR2) of 100%, an RA @ 1000nM (ZAP70) of 100% and an RA @ 10000nM (ZAP70) of 79%. The “hBChE inhibition in SH-SY5Y human neuroblastoma cell line” value (hBChE in SH-SY5Y cells) was “outperformed the control ethopropazine”, the “production of IL-12” value (PBMCs) was “increased, albeit at a low level” and the “production of pro-inflammatory cytokines IL-8, IL-1β, IL-6, IL-10, and TNF-α” value (PBMCs) was “significantly inhibited”. For the same molecule, the “efficacy in NOR task” value [2] was “statistically ineffective”, the “preference for the novel object (NOR task)” value [2] was “statistically significant preference for the novel object” and the “motor adverse effects (rotarod test)” value [3] was “no motor adverse effects”.

With `CN(C)CCNC(=O)c1cc2c(cnn2CC2CCCCC2)cc1Cc1ccc(F)cc1F` [Compound 95, 1-(Cyclohexylmethyl)-5-(2,4-difluorobenzyl)-N-(2-(dimethylamino)ethyl)-1H-indazole-6-carboxamide] the IC50 (p38α MAPK) was 191 nM and 87 ng/mL, the RA @ 1000nM [1] was 72% and the RA @ 10000nM [1] was 91%. It also gave an RA @ 1000nM (ABL1-phosphorylated) of 81%, an RA @ 10000nM (ABL1-phosphorylated) of 85% and an RA @ 1000nM (ADCK3) of 100%. For the same molecule, the RA @ 10000nM (ADCK3) was 81%, the RA @ 1000nM (AKT1) was 100% and the RA @ 10000nM (AKT1) was 100%. For the same molecule, the RA @ 1000nM (BMPR2) was 89%, the RA @ 10000nM (BMPR2) was 92% and the RA @ 1000nM (BTK) was 100%. For the same molecule, the RA @ 10000nM (BTK) was 100%, the RA @ 1000nM (CDK11) was 92% and the RA @ 10000nM (CDK11) was 100%. The RA @ 1000nM (CDK3) was 100%, the RA @ 10000nM (CDK3) was 100% and the RA @ 1000nM (CHEK1) was 100%. For the same molecule, the RA @ 10000nM (CHEK1) was 100%, the RA @ 1000nM (EPHA2) was 100% and the RA @ 10000nM (EPHA2) was 100%. The RA @ 1000nM (ERBB4) was 93%, the RA @ 10000nM (ERBB4) was 81% and the RA @ 1000nM (ERK1) was 96%. It also gave an RA @ 10000nM (ERK1) of 90%, an RA @ 1000nM (ERK 2) of 100% and an RA @ 10000nM (ERK 2) of 100%. The RA @ 1000nM (FGFR3) was 100%, the RA @ 10000nM (FGFR3) was 92% and the RA @ 1000nM (FLT3) was 100%. For the same molecule, the RA @ 10000nM (FLT3) was 100%, the RA @ 1000nM (GSK3B) was 100% and the RA @ 10000nM (GSK3B) was 80%. For the same molecule, the RA @ 1000nM (IGF1R) was 100%, the RA @ 10000nM (IGF1R) was 93% and the RA @ 1000nM (KIT(V559D,T670I)) was 47%. For the same molecule, the RA @ 10000nM (KIT(V559D,T670I)) was 94%, the RA @ 1000nM (MAP3K4) was 100% and the RA @ 10000nM (MAP3K4) was 60%. It also gave an RA @ 1000nM (MAPKAPK2) of 100%, an RA @ 10000nM (MAPKAPK2) of 100% and an RA @ 1000nM (MAPKAPK5) of 100%. For the same molecule, the RA @ 10000nM (MAPKAPK5) was 100%, the RA @ 1000nM (MKNK1) was 100% and the RA @ 10000nM (MKNK1) was 100%. The RA @ 1000nM (MLK1) was 100%, the RA @ 10000nM (MLK1) was 90% and the RA @ 1000nM (PIK3C2B) was 91%. The RA @ 10000nM (PIK3C2B) was 91%, the RA @ 1000nM (PIM2) was 100% and the RA @ 10000nM (PIM2) was 100%. The RA @ 1000nM (ROCK2) was 83%, the RA @ 10000nM (ROCK2) was 100% and the RA @ 1000nM (TIE2) was 90%. It also gave an RA @ 10000nM (TIE2) of 100%, an RA @ 1000nM (TSSK1B) of 100% and an RA @ 10000nM (TSSK1B) of 79%. The RA @ 1000nM (ULK2) was 77%, the RA @ 10000nM (ULK2) was 75% and the RA @ 1000nM (VEGFR2) was 100%. It also gave an RA @ 10000nM (VEGFR2) of 100%, an RA @ 1000nM (ZAP70) of 100% and an RA @ 10000nM (ZAP70) of 100%. For the same molecule, the “hBChE inhibition in SH-SY5Y human neuroblastoma cell line” value (hBChE in SH-SY5Y cells) was “outperformed the control ethopropazine”, the “production of IL-12” value (PBMCs) was “increased, albeit at a low level” and the “production of pro-inflammatory cytokines IL-8, IL-1β, IL-6, IL-10, and TNF-α” value (PBMCs) was “significantly inhibited”. The “efficacy in NOR task” value [2] was “statistically ineffective”, the “preference for the novel object (NOR task)” value [2] was “statistically significant preference for the novel object” and the “motor adverse effects (rotarod test)” value [3] was “no motor adverse effects”.
